The record followed here is article PMC10254045, “Elaboration of the Effective Multi-Target Therapeutic Platform for the Treatment of Alzheimer’s Disease Based on Novel Monoterpene-Derived Hydroxamic Acids” (International Journal of Molecular Sciences, 2023).

For orientation: melting point means the temperature, or range, at which the solid turns liquid.

For one data set, the system named is 5xFAD transgenic mice. Nature of the data set: Morris Water Maze test in 5xFAD transgenic mice. The data set is classed as in vivo. The following applies: 5xFAD mice; for Latency to platform: 15 mg/kg intraperitoneal. The source says: (§1) As part of the in vivo testing of the biological activity of the leader compound, a transgenic mouse model with Alzheimer’s disease 5xFAD at the age of 13 months was used. This line expresses two human genes: APP (amyloid peptide precursor protein gene) with three types of mutations (Swedish (K670N, M671L), Florida (I716V) and London (V717I)), as well as the presenilin 1 gene with mutations (M146L and L286V) characteristic of this disease. Clinically healthy wildtype single-litter mice C57Bl6/j (n = 8) were used as a control group. Transgenic 5xFAD mice were randomly divided into two groups: (1) animals receiving intraperitoneal injections of hydroxamic acid 35a at a dose of 15 mg/kg (10% DMSO + NaCl) for three weeks—the 5xFAD + 35a group (n = 8) and (2) mice receiving an equivalent volume of solvent—the group 5xFAD (n = 8). All animals were kept in standard vivarium conditions at a temperature of 22 ± 1 °C and a humidity of 55% indoors with a 12-h light–dark cycle. The animals had no restrictions in the consumption of water and food. The study of the neurobehavioral profile was started on the 15th day of the experiment.
The Morris Water Maze test was performed for five consecutive days to assess the formation of spatial learning and memory dependent on the hippocampus.
The installation consisted of a pool (Open Science, Moscow, Russia) with a diameter of 150 cm, filled to a depth of 40 cm with water (22 ± 1 °C). The lighting conditions were as follows: the dark side of the pool—50 lux; the light side—75 lux. […]
Testing was carried out according to a standard protocol, where for the first four days mice were placed in a pool with a platform hidden under water (1.5 cm below the water surface) in one of the quadrants of the pool. […] To do this, the animals were placed in the pool for 90 s and a number of indicators of the neurobehavioral profile were recorded.
All experimental attempts in the Morris water maze were recorded on a camera capturing video images from above the pool, which were processed using EthoVision software.

Data set [1] in a line: Oxygen radical absorbance capacity (ORAC). Particulars: Trolox equivalent; compounds and Trolox 100 µM, AAPH 12 mM. The source says: DPPH is a stable chromogen radical, which is widely used to assess the antioxidant activity of biological objects, in particular when searching for potential therapeutic agents used to maintain the redox balance in the body and treat pathologies associated with the action of free radicals. In turn, the oxygen radical absorbance capacity (ORAC) analysis is based on the removal by potential antioxidants of peroxyl radicals generated by AAPH (2,2’-axobis-2-methyl-propanimidamide, dihydrochloride), preventing the degradation of the fluorescein probe.
The analysis of the absorption capacity of oxygen radicals was performed as described in [151], with some modifications. Trolox (Sigma Aldrich, St. Louis, MI, USA) was used as a standard antioxidant. The studied compounds were introduced into the holes of a 96-hole black tablet with a transparent bottom with Trolox (25 µL; the final concentration was 100 µM) and fluorescein (150 µL; the final concentration was 80 nM, Sigma Aldrich, St. Louis, MI, USA). The resulting mixture was shaken and incubated for 30 min at 37 °C. After a 30-min incubation period, a solution of 2,2’-azobis (2-amidinopropane) dihydrochloride (AAPH) (25 µL; final concentration of 12 mM, Sigma Aldrich, St. Louis, MI, USA) was quickly introduced into all wells of the tablet. The tablet was immediately placed in a multifunctional tablet analyzer Cytation™ 3 (BioTek Instruments, Inc., Winooski, VT, USA). The fluorescence intensity was recorded for 300 min at λex = 480 nm, λem = 520 nm with an interval of every 5 min. In the same experiment, calibration solutions for the reference antioxidant Trolox were used to confirm the validity of the use of this method (0, 6.25, 12.5, 25, 50 and 100 µM).

In data set [2] the test system is 5xFAD transgenic mice brain. Nature of the data set: Histology of β-amyloid deposits in brain samples (Congo Red). The following applies: 21-day administration; cortex, midbrain and hippocampus zone; vs 5xFAD. Format: in vivo.
Description: as §1, with “The study of the neurobehavioral profile was started on the 15th day of the experiment.” left out
After cervical dislocation, the half of brain was dissected and fixed with Carnoy’s solution (ethanol–chloroform–glacial acetic acid, 6:3:1) for 17 h. […] The stained deposits were evaluated using a ZEISS LSM 880 laser scanning microscope (Carl Zeiss, Oberkochen, Germany) in the tile scan mode. […]

The test system of data set [3] is 5xFAD transgenic mice brain mitochondria. Nature of the data set: Mitochondrial oxygen consumption rate of brain p2 fraction (Seahorse). The data set is classed as in vivo. The following applies: p2 fraction of 5xFAD mice treated for three weeks, vs 5xFAD.
Description: as §1, with “All animals were kept in standard vivarium conditions at a temperature of 22 ± 1 °C and a humidity of 55% indoors with a 12-h light–dark cycle. The animals had no restrictions in the consumption of water and food. The study of the neurobehavioral profile was started on the 15th day of the experiment.” left out
The analysis of the work of the complexes of the electron transport chain of mitochondria was carried out on the mitochondrial p2 fraction obtained from brain samples of animals of experimental groups. Mitochondrial respiration was determined by the rate of oxygen consumption by organelles using the Seahorse XFe96 cell metabolism analyzer (Seahorse Bioscience, North Billerica, MA, USA), in full compliance with the protocol described in [169].

For the molecule `C=C(C)[C@@H]1CC=C(CNC(=O)/C=C/c2ccc(C(=O)NO)cc2)CC1` [Compound 35a, (S,E)-N-hydroxy-4-(3-oxo-3-(((4-(prop-1-en-2-yl)cyclohex-1-en-1-yl)methyl)amino)prop-1-en-1-yl)benzamide], the melting point amounted to 179.9 °C. In the data set on 5xFAD transgenic mice (first day of training), the Latency to platform is 55.70 ± 2.10 s. This molecule also gave a Latency to platform with 5xFAD transgenic mice (fourth day of training, p = 0.039 vs day 1) of 40.93 ± 5.47 s. For the same molecule, in the data set with 5xFAD transgenic mice (15 mg/kg, fifth day, p = 0.203 vs C57Bl6/j), the “number of entrances to the target quadrant, Probe trial” value is given as “same number of entrances to the target quadrant of the maze was found with the control group”. In addition, the “ORAC value (TE)” value in data set [1] is listed as 1.15 TE. For the same molecule, the “number of β-amyloid aggregates in the brain” value in data set [2] is on record as “decreased significantly”. Further, in data set [3] (p < 0.0001), the “activity of complex IV (oxygen consumption rate), increase” value came to 177.57%. Besides, the “activity of complex II (oxygen consumption rate), increase” value in data set [3] (p = 0.0025) was 57.30%.
